These results are taken from patent publication US9221816B2, “2-oxo-2,3-dihydro-indoles for the treatment of CNS disorders” (Hoffmann-La Roche Inc., priority 2012, dated 2015).

For this test, the system named is L-687,414-induced hyperlocomotion. The test is described as follows: L-687,414-induced hyperlocomotion (Digiscan locomotor activity). Type of test: in vivo, mouse. The following applies: mice; for Inhibition, ip: dose ip 30, at the same time as s.c. 50 mg/kg L-687,414, % inhibition of horizontal activity; for ID50 po: p.o. 15 min before s.c. 50 mg/kg L-687,414, dose producing 50% inhibition of hyperlocomotion. How it is done:
The authors described that hyperlocomotion induced by L-687,414 was inhibited by a series of known antipsychotic drugs. […] These findings predict antipsychotic activity for the present compounds, making them useful for the treatment of schizophrenia and other disorders as described above.
The described compounds of formula I and I-1 reduce L-687,414-induced hyperlocomotion. This was assessed by using a computerized Digiscan 16 Animal Activity Monitoring System (Omnitech Electronics, Columbus, Ohio) to quantify locomotor activity. Animals were kept under a 12 h light/dark cycle and experiments were performed during the light period. Each activity monitoring chamber consisted of a Plexiglas box (41×41×28 cm; W×L×H) with sawdust bedding on the floor surrounded by invisible horizontal and vertical infrared sensor beams. The test boxes were divided by a Plexiglas cross providing each mouse with 20×20 cm of moving space. Cages were connected to a Digiscan Analyzer linked to a computer that constantly collected the beam status information. Records of photocell beam interruptions for individual animals were taken every 5 min over the duration of the experimental session and the sum of the first 6 periods was used as the final parameter. Compounds were administered either p.o. 15 min before a s.c. injection of 50 mg/kg of L-687,414, or i.p. at the same time as a s.c. injection of 50 mg/kg of L-687,414. Mice were then transferred from their home cage to the recording chambers for a 15-min habituation phase allowing free exploration of the new environment. Horizontal activity was then recorded for a 30-min time period. The % inhibition of L-687,414-induced hyperlocomotion was calculated according to the equation: ((Veh+L-687,414 horizontal activity−drug+L-687,414 horizontal activity)/Veh+L-687,414 horizontal activity)×100
ID50 values, defined as doses of each compound producing 50% inhibition of L-687,414-induced hyperlocomotion, were calculated by linear regression analysis of a dose-response data using an Excel-based computer-fitting program.
As data was not presupposed to be normally distributed, groups treated with test compounds were statistically compared with the control (vehicle-treated) group using one-tailed Mann Whitney U tests. In statistics, the Mann-Whitney U test (also called the Mann-Whitney-Wilcoxon (MWW) or Wilcoxon rank-sum test) is a non-parametric statistical hypothesis test for assessing whether one of two samples of independent observations tends to have larger values than the other. It is one of the most well-known non-parametric significance tests. […] P values given in table 1 are one-tailed since only decreases in locomotion were expected and tested for (Mann, H. B., Whitney, D. R. (1947), “On a Test of Whether one of Two Random Variables is Stochastically Larger than the Other”, Annals of Mathematical Statistics, 18 (1), 50-60).

Take `Cc1cc(C(=O)Nc2ccc3c(c2)NC(=O)C3(C)C)ccn1` [Example 1, N-(3,3-Dimethyl-2-oxo-2,3-dihydro-1H-indol-6-yl)-2-methyl-isonicotinamide]: the “Inhibition, ip” value amounted to 81.6%.
Consider `CN1C(=O)C(C)(C)c2ccc(NC(=O)c3ccncc3)cc21` [Example 2, N-(1,3,3-Trimethyl-2-oxo-2,3-dihydro-1H-indol-6-yl)-isonicotinamide], for which the ID50 po came out at 2.06 mg/kg.
As for `CN1C(=O)C2(CCCC2)c2ccc(NC(=O)c3ccncc3)cc21` [Example 3, N-(1′-Methyl-2′-oxospiro[cyclopentane-1,3′-indoline]-6′-yl)isonicotinamide], the “Inhibition, ip” value was determined as 83.3%.
Consider `CN1C(=O)C(C)(C)c2ccc(NC(=O)c3cccnc3)cc21` [Example 4, N-(1,3,3-Trimethyl-2-oxoindolin-6-yl)nicotinamide], for which the ID50 po worked out at 1.84 mg/kg.
Take `Cc1cc(C(=O)Nc2ccc3c(c2)N(C)C(=O)C3(C)C)ccn1` [Example 5, 2-Methyl-N-(1,3,3-trimethyl-2-oxoindolin-6-yl)isonicotinamide]: the “Inhibition, ip” value is on record as 77.2%.
Still for that read-out and setting: then `CN1C(=O)C(C)(C)c2cnc(NC(=O)c3ccncc3)cc21` [Example 6, N-(1,3,3-Trimethyl-2-oxo-2,3-dihydro-1H-pyrrolo[3,2-c]pyridin-6-yl)isonicotinamide], with 64.5%.
Turning to `CCN1C(=O)C(C)(C)c2ccc(NC(=O)c3ccncc3)cc21` [Example 7, N-(1-ethyl-3,3-dimethyl-2-oxoindolin-6-yl)isonicotinamide], the “Inhibition, ip” value stood at 90.4%.
The same measure, in the same setting: the value for `Cc1cc(C(=O)Nc2ccc3c(c2)N(C)C(=O)C3(C)C)nc(C)n1` [Example 8, 2,6-Dimethyl-N-(1,3,3-trimethyl-2-oxoindolin-6-yl)pyrimidine-4-carboxamide] was 70.7%.
Regarding `Cc1ccncc1C(=O)Nc1ccc2c(c1)N(C)C(=O)C2(C)C` [Example 9, 4-Methyl-N-(1,3,3-trimethyl-2-oxoindolin-6-yl)nicotinamide], the ID50 po is 6.6 mg/kg.
For the compound `COc1ccc(C(=O)Nc2ccc3c(c2)N(C)C(=O)C3(C)C)cn1` [Example 10, 6-Methoxy-N-(1,3,3-trimethyl-2-oxoindolin-6-yl)nicotinamide], the “Inhibition, ip” value is listed as 62.2%.
For `Cc1ncc(C(=O)Nc2ccc3c(c2)N(C)C(=O)C3(C)C)c(C)n1` [Example 12, 2,4-Dimethyl-N-(1,3,3-trimethyl-2-oxoindolin-6-yl)pyrimidine-5-carboxamide], the “Inhibition, ip” value was determined as 69.2%.
Still for that read-out and setting: the value for `CC1(C)C(=O)N(C2CC2)c2cc(NC(=O)c3ccncc3)ccc21` [Example 14, N-(1-Cyclopropyl-3,3-dimethyl-2-oxoindolin-6-yl)isonicotinamide] was 66.5%.
The same measure, in the same setting: the value for `COc1cnccc1C(=O)Nc1ccc2c(c1)N(C)C(=O)C2(C)C` [Example 15, 3-Methoxy-N-(1,3,3-trimethyl-2-oxoindolin-6-yl)isonicotinamide] was 56.3%.
On to `Cc1cc(C(=O)Nc2ccc3c(c2)N(C2CC2)C(=O)C3(C)C)ccn1` [Example 17, N-(1-Cyclopropyl-3,3-dimethyl-2-oxoindolin-6-yl)-2-methylisonicotinamide], for which the “Inhibition, ip” value was 79.3%.
Still for that read-out and setting: then `CC1(C)C(=O)N(C2CC2)c2cc(NC(=O)c3cccnc3)ccc21` [Example 18, N-(1-Cyclopropyl-3,3-dimethyl-2-oxoindolin-6-yl)nicotinamide], with 68.8%.
The same measure, in the same setting: then `CN1C(=O)C(C)(C)c2cc(F)c(NC(=O)c3ccncc3)cc21` [Example 20, N-(5-Fluoro-1,3,3-trimethyl-2-oxoindolin-6-yl)isonicotinamide], with 87.3%.
The same measure, in the same setting: the value for `CCN1C(=O)C(C)(C)c2ccc(NC(=O)c3cccnc3)cc21` [Example 21, N-(1-Ethyl-3,3-dimethyl-2-oxoindolin-6-yl)nicotinamide] was 76.6%; that for `CN1C(=O)C(C)(C)c2cc(F)c(NC(=O)c3cccnc3)cc21` [Example 24, N-(5-fluoro-1,3,3-trimethyl-2-oxoindolin-6-yl)nicotinamide] was 80.0%.
On to `CN1C(=O)C(C)(C)c2ccc(NC(=O)c3ccncc3Cl)cc21` [Example 27, 3-Chloro-N-(1,3,3-trimethyl-2-oxoindolin-6-yl)isonicotinamide], for which the ID50 po was found to be 1.95 mg/kg.
Regarding `Cc1cc(C(=O)Nc2ccc3c(c2F)N(C)C(=O)C3(C)C)ccn1` [Example 28, N-(7-fluoro-1,3,3-trimethyl-2-oxoindolin-6-yl)-2-methylisonicotinamide], the “Inhibition, ip” value is given as 74.7%.
`CC1(C)C(=O)N(C2CC2)c2cc(NC(=O)c3ccncc3F)ccc21` [Example 31, N-(1-Cyclopropyl-3,3-dimethyl-2-oxoindolin-6-yl)-3-fluoroisonicotinamide]: the ID50 po came out at 1 mg/kg.
Take `Cc1cc(C(=O)Nc2ccc3c(c2)N(C)C(=O)C3(C)C)c(F)cn1` [Example 33, 5-Fluoro-2-methyl-N-(1,3,3-trimethyl-2-oxoindolin-6-yl)isonicotinamide]: the “Inhibition, ip” value was determined as 78.6%.
Same read-out and setting: then `Cc1cc(C(=O)Nc2cc3c(cc2Cl)C(C)(C)C(=O)N3C)ccn1` [Example 35, N-(5-Chloro-1,3,3-trimethyl-2-oxoindolin-6-yl)-2-methylisonicotinamide], with 57.3%; and `CC1(C)C(=O)N(C2CC2)c2cc(NC(=O)c3ccncc3)c(F)cc21` [Example 36, N-(1-cyclopropyl-5-fluoro-3,3-dimethyl-2-oxoindolin-6-yl)isonicotinamide], with 89.0%; and `CC(C)N1C(=O)C(C)(C)c2ccc(NC(=O)c3cccnc3)cc21` [Example 37, N-(1-Isopropyl-3,3-dimethyl-2-oxoindolin-6-yl)nicotinamide], with 64.0%.
Still for that read-out and setting: the value for `CC1(C)C(=O)N(C2CC2)c2cc(NC(=O)c3cccnc3)c(F)cc21` [Example 38, N-(1-Cyclopropyl-5-fluoro-3,3-dimethyl-2-oxoindolin-6-yl)nicotinamide] was 60.8%; that for `CCN1C(=O)C(C)(C)c2ccc(NC(=O)c3ccnc(C)c3)cc21` [Example 39, N-(1-Ethyl-3,3-dimethyl-2-oxoindolin-6-yl)-2-methylisonicotinamide] was 58.6%; that for `CCN1C(=O)C(C)(C)c2ccc(NC(=O)c3ccncc3Cl)cc21` [Example 40, 3-Chloro-N-(1-ethyl-3,3-dimethyl-2-oxoindolin-6-yl)isonicotinamide] was 72.9%.
Still for that read-out and setting: then `CCN1C(=O)C(C)(C)c2ccc(NC(=O)c3ccncc3F)cc21` [Example 41, N-(1-ethyl-3,3-dimethyl-2-oxoindolin-6-yl)-3-fluoroisonicotinamide], with 85.2%; and `CN1C(=O)C(C)(C)c2ccc(NC(=O)c3ccc(F)cc3)cc21` [Example 43, 4-Fluoro-N-(1,3,3-trimethyl-2-oxoindolin-6-yl)benzamide], with 88.0%.
Take `Cc1cc(C(=O)Nc2cc3c(cc2F)C(C)(C)C(=O)N3C2CC2)ccn1` [Example 46, N-(1-Cyclopropyl-5-fluoro-3,3-dimethyl-2-oxoindolin-6-yl)-2-methylisonicotinamide]: the “Inhibition, ip” value is given as 72.7%.
The same measure, in the same setting: then `CN1C(=O)C(C)(C)c2cc(F)c(NC(=O)c3ccncc3Cl)cc21` [Example 51, 3-Chloro-N-(5-fluoro-1,3,3-trimethyl-2-oxoindolin-6-yl)isonicotinamide], with 80.1%; and `CC1(C)C(=O)N(CC2CC2)c2cc(NC(=O)c3ccncc3)ccc21` [Example 52, N-(1-(Cyclopropylmethyl)-3,3-dimethyl-2-oxoindolin-6-yl)isonicotinamide], with 78.8%; and `CC1(C)C(=O)N(CC2CC2)c2cc(NC(=O)c3ccncc3F)ccc21` [Example 53, N-(1-(Cyclopropylmethyl)-3,3-dimethyl-2-oxoindolin-6-yl)-3-fluoroisonicotinamide], with 89.9%.
Same read-out and setting: the value for `Cc1cc(C(=O)Nc2ccc3c(c2)N(C2CC2)C(=O)C3(C)C)c(F)cn1` [Example 54, N-(1-Cyclopropyl-3,3-dimethyl-2-oxoindolin-6-yl)-5-fluoro-2-methylisonicotinamide] was 55.6%.
The same measure, in the same setting: the value for `O=C(Nc1ccc2c(c1)N(C1CC1)C(=O)C21CC1)c1ccncc1` [Example 55, N-(1′-Cyclopropyl-2′-oxospiro[cyclopropane-1,3′-indoline]-6′-yl)isonicotinamide] was 61.7%.
